These are literature values, as cited in US7115654B2, “Caspase-1 inhibitors and methods for their use” (Sunesis Pharmaceuticals, Inc., priority 2002, dated 2006).

The data set has as its system embryonic nigral cell suspension.

Turning to Ac-YVAD-cmk, the functional recovery result (hemiparkinsonian rats) was “substantially improved”. The “survival of dopaminergic neurons” value (neurons grafted to hemiparkinsonian rats) is given as “increased”. In addition, the apoptosis in transplants result (treatment of the embryonic nigral cell suspension) was “reduced”. Also, the DNA fragmentation result (treatment of the embryonic nigral cell suspension, in transplants) is listed as “mitigated”.
